Laboratory results from PubChem BioAssay (NCI).
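Method: 48-hour compound exposure of cells in 96-well plates, five concentrations, linear interpolation of endpoints. GI50: concentration for 50% inhibition of growth. TGI: concentration producing complete growth inhibition.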

Assays:
Assay in all cases: NCI-60 cell line screen, 48 h
786-0 renal = system: 786-0 renal
A498 renal = system: A498 renal
A549 NSCLC = system: A549 NSCLC
ACHN renal = system: ACHN renal
BT-549 breast = system: BT-549 breast
CAKI-1 renal = system: CAKI-1 renal
CCRF-CEM leukemia = system: CCRF-CEM leukemia
COLO 205 colon = system: COLO 205 colon
DU-145 prostate = system: DU-145 prostate
EKVX NSCLC = system: EKVX NSCLC
HCC-2998 colon = system: HCC-2998 colon
HCT-116 colon = system: HCT-116 colon
HCT-15 colon = system: HCT-15 colon
HL-60(TB) leukemia = system: HL-60(TB) leukemia
HOP-62 NSCLC = system: HOP-62 NSCLC
HOP-92 NSCLC = system: HOP-92 NSCLC
HS 578T breast = system: HS 578T breast
HT29 colon = system: HT29 colon
IGROV1 ovarian = system: IGROV1 ovarian
K-562 leukemia = system: K-562 leukemia
KM12 colon = system: KM12 colon
LOX IMVI melanoma = system: LOX IMVI melanoma
M14 melanoma = system: M14 melanoma
MALME-3M melanoma = system: MALME-3M melanoma
MCF7 breast = system: MCF7 breast
MDA-MB-231 breast = system: MDA-MB-231 breast
MDA-MB-435 = system: MDA-MB-435
MOLT-4 leukemia = system: MOLT-4 leukemia
NCI-H226 lung = system: NCI-H226 lung
NCI-H23 lung = system: NCI-H23 lung
NCI-H460 lung = system: NCI-H460 lung
NCI-H522 lung = system: NCI-H522 lung
NCI/ADR-RES ovarian = system: NCI/ADR-RES ovarian
OVCAR-3 ovarian = system: OVCAR-3 ovarian
OVCAR-4 ovarian = system: OVCAR-4 ovarian
OVCAR-5 ovarian = system: OVCAR-5 ovarian
OVCAR-8 ovarian = system: OVCAR-8 ovarian
PC-3 prostate = system: PC-3 prostate
RPMI-8226 leukemia = system: RPMI-8226 leukemia
RXF 393 renal = system: RXF 393 renal
SF-268 CNS = system: SF-268 CNS
SF-295 CNS = system: SF-295 CNS
SF-539 CNS = system: SF-539 CNS
SK-MEL-2 melanoma = system: SK-MEL-2 melanoma
SK-MEL-28 melanoma = system: SK-MEL-28 melanoma
SK-MEL-5 melanoma = system: SK-MEL-5 melanoma
SK-OV-3 ovarian = system: SK-OV-3 ovarian
SN12C renal = system: SN12C renal
SNB-19 CNS = system: SNB-19 CNS
SNB-75 CNS = system: SNB-75 CNS
SR leukemia = system: SR leukemia
SW-620 colon = system: SW-620 colon
T-47D breast = system: T-47D breast
TK-10 renal = system: TK-10 renal
U251 CNS = system: U251 CNS
UACC-257 melanoma = system: UACC-257 melanoma
UACC-62 melanoma = system: UACC-62 melanoma
UO-31 renal = system: UO-31 renal

Structure (SMILES): ClC1=C(Cl)C(Cl)=C(Cl)C1=Cc1ccccc1
- GI50 (786-0 renal): 1320 nM
- TGI (786-0 renal): 3.08 µM
- GI50 (A498 renal): 1390 nM
- TGI (A498 renal): 2780 nM
- GI50 (A549 NSCLC): 1630 nM
- TGI (A549 NSCLC): 4.32 µM
- GI50 (ACHN renal): 703 nM
- TGI (ACHN renal): 2220 nM
- GI50 (BT-549 breast): 1680 nM
- TGI (BT-549 breast): 3.89 µM
- GI50 (CAKI-1 renal): 342 nM
- TGI (CAKI-1 renal): 1130 nM
- GI50 (CCRF-CEM leukemia): 288 nM
- TGI (CCRF-CEM leukemia): 3.57 µM
- GI50 (COLO 205 colon): 937 nM
- TGI (COLO 205 colon): 2650 nM
- GI50 (DU-145 prostate): 708 nM
- TGI (DU-145 prostate): 2830 nM
- GI50 (EKVX NSCLC): 1400 nM
- TGI (EKVX NSCLC): 3.39 µM
- GI50 (HCC-2998 colon): 1730 nM
- TGI (HCC-2998 colon): 3.14 µM
- GI50 (HCT-116 colon): 293 nM
- TGI (HCT-116 colon): 936 nM
- GI50 (HCT-15 colon): 1220 nM
- TGI (HCT-15 colon): 6.04 µM
- GI50 (HL-60(TB) leukemia): 595 nM
- TGI (HL-60(TB) leukemia): 2400 nM
- GI50 (HOP-62 NSCLC): 1640 nM
- TGI (HOP-62 NSCLC): 3.68 µM
- GI50 (HOP-92 NSCLC): 621 nM
- TGI (HOP-92 NSCLC): 1610 nM
- GI50 (HS 578T breast): 915 nM
- TGI (HS 578T breast): 10.1 µM
- GI50 (HT29 colon): 457 nM
- TGI (HT29 colon): 2270 nM
- GI50 (IGROV1 ovarian): 916 nM
- TGI (IGROV1 ovarian): 2510 nM
- GI50 (K-562 leukemia): 277 nM
- TGI (K-562 leukemia): 3.5 µM
- GI50 (KM12 colon): 1470 nM
- TGI (KM12 colon): 3.11 µM
- GI50 (LOX IMVI melanoma): 198 nM
- TGI (LOX IMVI melanoma): 469 nM
- GI50 (M14 melanoma): 495 nM
- TGI (M14 melanoma): 2110 nM
- GI50 (MALME-3M melanoma): 1490 nM
- TGI (MALME-3M melanoma): 4.15 µM
- GI50 (MCF7 breast): 610 nM
- TGI (MCF7 breast): 7.02 µM
- GI50 (MDA-MB-231 breast): 2430 nM
- TGI (MDA-MB-231 breast): 10.4 µM
- GI50 (MDA-MB-435): 350 nM
- TGI (MDA-MB-435): 1160 nM
- GI50 (MOLT-4 leukemia): 314 nM
- TGI (MOLT-4 leukemia): 1560 nM
- GI50 (NCI-H226 lung): 1910 nM
- TGI (NCI-H226 lung): 3.86 µM
- GI50 (NCI-H23 lung): 520 nM
- TGI (NCI-H23 lung): 2080 nM
- GI50 (NCI-H460 lung): 1250 nM
- TGI (NCI-H460 lung): 4.13 µM
- GI50 (NCI-H522 lung): 189 nM
- TGI (NCI-H522 lung): 459 nM
- GI50 (NCI/ADR-RES ovarian): 287 nM
- TGI (NCI/ADR-RES ovarian): 1160 nM
- GI50 (OVCAR-3 ovarian): 463 nM
- TGI (OVCAR-3 ovarian): 1620 nM
- GI50 (OVCAR-4 ovarian): 2000 nM
- TGI (OVCAR-4 ovarian): 6.92 µM
- GI50 (OVCAR-5 ovarian): 1650 nM
- TGI (OVCAR-5 ovarian): 3.85 µM
- GI50 (OVCAR-8 ovarian): 417 nM
- TGI (OVCAR-8 ovarian): 21 µM
- GI50 (PC-3 prostate): 622 nM
- TGI (PC-3 prostate): 3.7 µM
- GI50 (RPMI-8226 leukemia): 311 nM
- TGI (RPMI-8226 leukemia): 2300 nM
- GI50 (RXF 393 renal): 920 nM
- TGI (RXF 393 renal): 2230 nM
- GI50 (SF-268 CNS): 753 nM
- TGI (SF-268 CNS): 2430 nM
- GI50 (SF-295 CNS): 1330 nM
- TGI (SF-295 CNS): 3.74 µM
- GI50 (SF-539 CNS): 1830 nM
- TGI (SF-539 CNS): 4.2 µM
- GI50 (SK-MEL-2 melanoma): 1380 nM
- TGI (SK-MEL-2 melanoma): 2970 nM
- GI50 (SK-MEL-28 melanoma): 1620 nM
- TGI (SK-MEL-28 melanoma): 3.27 µM
- GI50 (SK-MEL-5 melanoma): 1380 nM
- TGI (SK-MEL-5 melanoma): 2680 nM
- GI50 (SK-OV-3 ovarian): 2000 nM
- TGI (SK-OV-3 ovarian): 4.66 µM
- GI50 (SN12C renal): 1950 nM
- TGI (SN12C renal): 7.15 µM
- GI50 (SNB-19 CNS): 1630 nM
- TGI (SNB-19 CNS): 3.58 µM
- GI50 (SNB-75 CNS): 1460 nM
- TGI (SNB-75 CNS): 3.1 µM
- GI50 (SR leukemia): 334 nM
- TGI (SR leukemia): 2570 nM
- GI50 (SW-620 colon): 293 nM
- TGI (SW-620 colon): 1030 nM
- GI50 (T-47D breast): 1150 nM
- TGI (T-47D breast): 3.56 µM
- GI50 (TK-10 renal): 645 nM
- TGI (TK-10 renal): 2020 nM
- GI50 (U251 CNS): 517 nM
- TGI (U251 CNS): 1590 nM
- GI50 (UACC-257 melanoma): 731 nM
- TGI (UACC-257 melanoma): 2130 nM
- GI50 (UACC-62 melanoma): 1650 nM
- TGI (UACC-62 melanoma): 5.02 µM
- GI50 (UO-31 renal): 527 nM
- TGI (UO-31 renal): 1980 nM
